# Test results as given in patent US20150005307A1, “Drug Delivery Technology” (LondonPharma Ltd., priority 2011, published 2015).
# Where a name gives a salt, the structure may show the parent alone.
# Test: Solubility of PDE5 inhibitors in formulation carriers and co-solvents
# Settings: for solubility in water: result in words
# Source text: In the absence of ethanol an alternative preservative could be used, though methyl parabens and potassium sorbate precipitated out of solution.
# Suitable sweeteners were sucralose (0.05%) and suitable flavourings were strawberry flavour 501094 (0.5%) and orange juice flavour 506304 (0.5%).
# Cremophor EL (macrogol glycerol ricinoleate Ph Eur) was identified as a component that was able to maintain menthol, peppermint oil, aniseed and lemon oil in solution. These flavours were firstly mixed at 10% w/w with Cremophor EL, and the resultant combination then mixed with water (10% w/w in purified water). […] Note that vanillin also degraded in Cremophor EL, rendering it unusable. […] The action of Cremophor EL here is that of a water-miscible oil-based solvent. Sildenafil and vardenafil remained in solution at a concentration of at least 60 mg/ml and 30 mg/ml, respectively, in the presence of 10% Cremophor EL.
# [1] = Miglyol 810 (medium-chain triglycerides Ph Eur), with or without ethanol
SMILES,solubility in Miglyol 810 [1],"solubility in other potential solvents e.g. PEG (PEG, even using ethanol as a co-solvent)",solubility in water (water),solubility in Miglyol 810,solubility (water) [mg/mL]
"CN1CC(=O)N2[C@H](c3ccc4c(c3)OCO4)c3[nH]c4ccccc4c3C[C@@H]2C1=O [Tadalafil (base), Tadalafil]",insoluble,insoluble,insoluble,–,–
"CCCc1nc(C)c2c(=O)[nH]c(-c3cc(S(=O)(=O)N4CCN(CC)CC4)ccc3OCC)nn12 [Vardenafil (hydrochloride trihydrate), vardenafil hydrochloride trihydrate]",–,–,–,insoluble,≥ 50
"CCCc1nn(C)c2c(=O)[nH]c(-c3cc(S(=O)(=O)N4CCN(C)CC4)ccc3OCC)nc12 [sildenafil (base), sildenafil]",Neither sildenafil (base) nor sildenafil citrate were found to be soluble,–,Neither sildenafil (base) nor sildenafil citrate were found to be soluble,–,–
